The target of the assay is T1, 5-lipoxygenase (Cavia porcellus, UniProt A0A286X958).
T1 construct: The cytosol fraction of peritoneal exudate cells from male Hartley guinea pigs (400-700 g) was used as 5-lipoxygenase; from tissue; host or cells: cytosol fraction of peritoneal exudate cells (leukocytes) of male Hartley guinea pigs
T1 sequence (A0A286X958 1-674): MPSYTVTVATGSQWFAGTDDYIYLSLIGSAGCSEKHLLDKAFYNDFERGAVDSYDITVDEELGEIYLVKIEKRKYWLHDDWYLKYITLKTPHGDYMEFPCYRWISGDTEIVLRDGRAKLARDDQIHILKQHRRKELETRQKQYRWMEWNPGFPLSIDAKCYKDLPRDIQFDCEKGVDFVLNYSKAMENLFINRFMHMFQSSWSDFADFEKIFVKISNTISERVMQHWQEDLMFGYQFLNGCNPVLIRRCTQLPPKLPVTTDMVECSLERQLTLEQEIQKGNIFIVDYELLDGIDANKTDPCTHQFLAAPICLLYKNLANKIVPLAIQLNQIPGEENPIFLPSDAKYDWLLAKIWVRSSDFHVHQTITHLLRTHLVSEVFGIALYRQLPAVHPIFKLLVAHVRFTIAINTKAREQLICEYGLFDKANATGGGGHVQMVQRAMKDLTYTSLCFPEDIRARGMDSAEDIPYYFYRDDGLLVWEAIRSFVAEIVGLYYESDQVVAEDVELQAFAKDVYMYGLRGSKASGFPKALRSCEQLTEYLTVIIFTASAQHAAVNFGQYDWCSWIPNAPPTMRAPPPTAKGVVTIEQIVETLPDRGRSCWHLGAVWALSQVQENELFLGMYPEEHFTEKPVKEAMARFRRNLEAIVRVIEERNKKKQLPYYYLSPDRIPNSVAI
Description: Inhibitory effect on 5-lipoxygenase activity in guinea pig leukocytes. It is filed as biochemical, guinea pig (male Hartley). As to conditions: read-out: 5-Lipoxygenase inhibit. activity, Inhibition. Here is the method: (1) Inhibitory effect on 5-lipoxygenase activity in guinea pig leukocytes:
This test was carried out by the method of Miyamoto and Obata (cf. "Perspectives in Prostaglandin Research," ed. by Y. Shiokawa et al., Excepta Medica, Amsterdam-Oxford-Princeton, 1983, p78) with minor modifications.
The cytosol fraction of peritoneal exudate cells from male Hartley guinea pigs (400-700 g) was used as 5-lipoxygenase. The standard reaction mixture contained 50 mM potassium phosphate buffer, 1 mM CaCl2, 1 mM glutathione, 1 mM adenosine triphosphoric acid, 10 μM indomethacin and the enzyme. The mixture was incubated for 5 minutes at 30° C. after addition of [1-^14 C]arachidonic acid (0.02 μCi). The reaction was terminated by addition of 0.6 ml of the cold organic solvents (diethyl ether/methanol/0.2M citric acid=30/4/1). The organic layer (300 μl) was applied onto a precoated silica gel 60F254 glass plate (E. Merck, West Germany). Radioactivity on the plate was monitored by a radiochromatogram scanner (Packard, U.S.A.). 5-Lipoxygenase activity was calculated according to the following equation. [formula]
The effects of the test compounds were expressed in terms of percent inhibition.

Regarding `Cc1ccc(C=CC(=O)NCCCCN2CCN(C(c3ccccc3)c3ccccc3)CC2)cn1` [Example 2, N-[3-(6-methyl-3-pyridyl)acryloyl]-4-(4-diphenylmethyl-1-piperazinyl)butylamine], the inhibition – broadly, the relative decrease from the control value, in per cent – at 30 µM (3 × 10^-5 M) worked out at 87.2%. Further, the inhibition at 10 µM (10^-5 M) is 45.7%.

(Values after US4778796A, “ω-(3-pyridyl)alkenamide derivatives and anti-allergenic pharmaceutical compositions containing same” (Dainippon Pharmaceutical Co., Ltd., priority 1985, dated 1988).)
